Results on 7 compounds are retold here after paper PMC11854949, “Discovery of Novel Pyridin-2-yl Urea Inhibitors Targeting ASK1 Kinase and Its Binding Mode by Absolute Protein–Ligand Binding Free Energy Calculations” (International Journal of Molecular Sciences, 2025).

The target of the assay is T1, recombinant human ASK1 protein (catalytic domain, residues 659–951) (Homo sapiens, UniProt Q99683).
T1 construct: The catalytic domain of ASK1 (encoding residues 659–951) was modified to include an N-terminal 6XHis tag; 6XHis (N); made in house; host or cells: E. coli Rosetta2 (DE3)
The assay is described as follows: ASK1 enzyme inhibition assay (ADP-Glo). The assay is classed as biochemical. As to conditions: for ΔGexp: estimated from IC50 using ΔG = RTln(IC50), 298 K; for IC50: mean ± SEM, n = 3 experiments, 25 μM ATP, 0.1 μg/μL MBP, ADP-Glo. The method, then: The recombinant human ASK1 protein was expressed in E. coli Rosetta2 (DE3) in LB medium, containing 100 µg/mL ampicillin and 34 µg/mL chloramphenicol. A total of 2 mL overnight culture was diluted 100-fold into 200 mL LB and grown at 37 °C with shaking at 200 rpm until the OD600 reached 0.8. Subsequently, 0.5 mM IPTG was added, and protein expression was induced overnight at 20 °C.
The IC50 value for each inhibitor was determined using the ADP-Glo™ protocol. Inhibitors were prepared as a series of 1:1 serial dilutions (final concentration of 10 μM) in 40 mM HEPES buffer (pH 7.5) containing 20 mM MgCl2, 0.1 mg/mL BSA, 50 μM DTT and 5% DMSO.
The reaction was terminated by adding 5 μL of ADP-Glo reagent and incubated at room temperature for 40 min. Then, 10 μL of kinase detection reagent was added, and the mixture was incubated for an additional 30 min. Luminescence was measured using a VICTOR Nivo microplate reader (PerkinElmer, Waltham, MA, USA), and the concentration–response curve and half-maximal inhibitory concentration (IC50) values were obtained by fitting the data using GraphPad Prism (v.9.0) software.

T1 sequence (Q99683 659-951): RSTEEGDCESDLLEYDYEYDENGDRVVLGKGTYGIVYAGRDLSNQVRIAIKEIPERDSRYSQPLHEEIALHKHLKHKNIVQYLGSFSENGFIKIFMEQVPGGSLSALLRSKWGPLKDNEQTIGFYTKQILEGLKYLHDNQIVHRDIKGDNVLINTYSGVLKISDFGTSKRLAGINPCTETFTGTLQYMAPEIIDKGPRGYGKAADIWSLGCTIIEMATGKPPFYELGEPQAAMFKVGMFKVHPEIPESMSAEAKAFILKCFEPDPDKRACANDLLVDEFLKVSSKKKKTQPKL

Take `CC(C)n1cnnc1-c1cccc(NC(=O)N2CCCC2)n1` [Compound 1]: the ΔGexp is -7.41 ± 0.01 kcal/mol and the IC50 (commonly the concentration that inhibits the measured activity by half) is 3.63 ± 0.0722 µM.

Turning to `COc1ccc2c(c1)CCN2C(=O)Nc1cccc(-c2nncn2C(C)C)n1` [Compound 4], the ΔGexp is -10.01 ± 0.07 kcal/mol and the IC50 was 0.0453 ± 0.00482 µM.

With `CC(C)n1cnnc1-c1cccc(NC(=O)N2CCc3ccccc3C2)n1` [Compound 7], the ΔGexp is -7.21 ± 0.06 kcal/mol and the IC50 came to 5.11 ± 0.507 µM.

Turning to `COc1ccc2c(c1)N(C(=O)Nc1cccc(-c3nncn3C(C)C)n1)CC2` [Compound 2], the ΔGexp is -12.02 ± 0.11 kcal/mol and the IC50 turned out to be 0.00155 ± 0.00027 µM.

In the case of `CC(C)n1cnnc1-c1cccc(NC(=O)N2CCCc3ccccc32)n1` [Compound 6], the ΔGexp was -11.64 ± 0.06 kcal/mol and the half-maximal inhibitory concentration (IC50) was 0.00292 ± 0.00028 µM.

For the compound `CC(C)n1cnnc1-c1cccc(NC(=O)N2CCc3cc(C(F)(F)F)ccc32)n1` [Compound 5], the ΔGexp is -8.85 ± 0.02 kcal/mol and the IC50 turned out to be 0.319 ± 0.0109 µM.

Consider `CC(C)n1cnnc1-c1cccc(NC(=O)N2CCc3ccc(OC(F)(F)F)cc32)n1` [Compound 3], for which the ΔGexp was -8.21 ± 0.01 kcal/mol and the IC50 turned out to be 0.954 ± 0.0215 µM.
